According to US8541410B2, “Sulfur substituted sulfonylaminocarboxylic acid N-arylamides, their preparation, their use and pharmaceutical preparations comprising them” (Sanofi-aventis Deutschland GmbH, priority 1998, dated 2013):

Legend:
rat aorta rings = assay: Relaxation of rat aorta (phenylephrine-precontracted rings); assay type: cell-based, rat (Wistar-Kyoto); details: 50% relaxation of phenylephrine (1 μM) contraction
Description: For this test, normotensive male Wistar-Kyoto rats were sacrificed by a blow to the neck. The abdominal cavity and the thorax were opened by a medium stemotomy. The descending aorta was subsequently removed, freed of connective tissue and divided into 8 rings of a length of approximately 4 mm. The tip of a pair of tweezers was introduced into the lumen of 4 of the 8 rings. The endothelium was removed by carefully rolling the rings over the tip of the pair of tweezers. All 8 aorta rings (4 with endothelium and 4 without endothelium) were subsequently suspended in an organ bath (Schuler-Organbad; Hugo Sachs Elektronik) at a constant temperature of 37° C. for the isometric determination of the contractile tone. For 30 minutes, the rings were calibrated at a resting tension of 0.1 g in carbonated (95% O2; 5% CO2) Krebs-Henseleit solution (composition: Na^+ 144.0 mM; K^+ 5.9 mM; Cl^− 126.9 mM; Ca^2+ 1.6 mM; […] 1.2 mM; H2PO4^− 1.2 mM; SO4^2− 1.2 mM; HCO3^− 25.0 mM; D-glucose 11.1 mM) of pH 7.4. Additionally, 1 μmol/l of indomethacin were added to the Krebs-Henseleit solution to inhibit prostaglandin biosynthesis. The rings were subsequently precontracted by addition of phenylephrine (concentration in the solution: 1 μM) and the endothelium-dependent relaxation or the functional loss of the endothelium was tested by addition of acetylcholine (concentration in the solution: 1 μM). After a 30-minute washing period, the rings were then again precontracted by addition of phenylephrine (1 μM), and the relaxing action of the test substances of the formula I was determined by administration of cumulative doses of the latter. The data were evaluated by standard methods. Given is the concentration IC50 by which contraction is inhibited by 50% (50% relaxation).

[1] = molecular target: T1, soluble guanylate cyclase (sGC) (Bos taurus, UniProt P16068); assay: Activation of the soluble guanylate cyclase (cGMP enzyme immunoassay); assay type: biochemical, bovine; details: n-fold stimulation of basal enzyme activity
T1 construct: The sGC which was employed had been isolated from bovine lung; from tissue; host or cells: bovine lung
T1 sequence (P16068 1-619): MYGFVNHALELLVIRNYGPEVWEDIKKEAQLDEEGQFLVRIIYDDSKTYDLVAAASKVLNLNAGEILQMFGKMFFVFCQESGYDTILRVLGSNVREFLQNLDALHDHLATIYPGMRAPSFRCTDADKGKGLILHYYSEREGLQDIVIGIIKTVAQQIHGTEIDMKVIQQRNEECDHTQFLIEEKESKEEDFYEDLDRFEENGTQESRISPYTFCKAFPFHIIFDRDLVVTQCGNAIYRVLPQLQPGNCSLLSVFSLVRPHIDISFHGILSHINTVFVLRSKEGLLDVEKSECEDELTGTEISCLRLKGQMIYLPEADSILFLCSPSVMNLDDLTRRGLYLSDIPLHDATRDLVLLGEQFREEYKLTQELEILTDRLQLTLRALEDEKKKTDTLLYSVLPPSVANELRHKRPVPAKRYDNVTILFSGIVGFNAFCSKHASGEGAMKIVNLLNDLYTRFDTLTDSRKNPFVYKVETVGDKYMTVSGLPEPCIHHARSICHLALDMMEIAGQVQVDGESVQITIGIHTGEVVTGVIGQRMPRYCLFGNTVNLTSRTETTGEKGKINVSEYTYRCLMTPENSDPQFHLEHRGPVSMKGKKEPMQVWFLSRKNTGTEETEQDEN
T1 sequence (P19687 1-691 partner): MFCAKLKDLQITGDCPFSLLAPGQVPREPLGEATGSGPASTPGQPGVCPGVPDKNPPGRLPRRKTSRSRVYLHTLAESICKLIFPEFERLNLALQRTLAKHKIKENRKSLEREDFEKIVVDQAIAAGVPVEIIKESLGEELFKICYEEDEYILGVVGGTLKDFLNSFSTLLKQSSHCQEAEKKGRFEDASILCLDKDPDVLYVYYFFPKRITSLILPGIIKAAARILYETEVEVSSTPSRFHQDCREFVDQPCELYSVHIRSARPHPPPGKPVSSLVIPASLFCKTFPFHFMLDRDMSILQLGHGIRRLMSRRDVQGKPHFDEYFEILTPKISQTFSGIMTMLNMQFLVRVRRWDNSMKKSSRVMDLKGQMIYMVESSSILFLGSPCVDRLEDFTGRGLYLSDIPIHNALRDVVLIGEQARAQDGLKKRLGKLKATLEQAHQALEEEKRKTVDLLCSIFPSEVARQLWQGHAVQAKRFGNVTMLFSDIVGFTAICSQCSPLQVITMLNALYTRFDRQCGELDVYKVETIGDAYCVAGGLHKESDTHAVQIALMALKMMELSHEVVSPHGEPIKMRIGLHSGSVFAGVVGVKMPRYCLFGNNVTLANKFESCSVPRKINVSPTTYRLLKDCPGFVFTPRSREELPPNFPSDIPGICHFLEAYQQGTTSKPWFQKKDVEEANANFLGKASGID
Method: The activation of the soluble guanylate cyclase (sGC) which catalyzes the conversion of guanosine triphosphate (GTP) into cyclic guanosine monophosphate (cGMP) and pyrophosphate, by the compounds according to the invention was quantified with the aid of an enzyme immunoassay (EIA) from Amersham. For this purpose the substances to be tested were initially incubated with sGC in microtiter plates, and the amount of the cGMP formed was then determined.
The sGC which was employed had been isolated from bovine lung (see Methods in Enzymology, Volume 195, p. 377). The test solutions (100 μl per well) contained 50 mM triethanolamine (TEA) buffer (pH 7.5), 3 mM MgCl2, 3 mM reduced glutathione (GSH), 0.1 mM GTP, 1 mM 3-isobutyl-1-methylxanthine (IBMX), suitably diluted enzyme solution and the substance to be tested or, in the control experiments, the solvent. The substances to be tested were dissolved in dimethyl sulfoxide (DMSO) and the solution was diluted with DMSO/water, so that the final concentration (c) of the substance to be tested in the test solution had the value indicated in the table. The DMSO concentration in the test solution was 5% (v/v). The reaction was initiated by addition of the sGC. The reaction mixture was incubated at 37° C. for 15 to 20 minutes and then stopped by ice-cooling and addition of the stop reagent (50 mM EDTA, pH 8.0). An aliquot of 50 μl was taken and used for determining the cGMP content using the acetylation protocol of the Amersham cGMP-EIA kit. The absorption of the samples was measured at 450 nm (reference wavelength 620 nm) in a microtiter plate reader. The cGMP concentration was determined using a standard curve which was obtained under the same test conditions. The activation of sGC by a test substance is given as the n-fold stimulation of the basal enzyme activity which was found in the control experiments (using solvent instead of test substance) (calculated using the formula n-fold stimulation=[cGMP]test substance/[cGMP]control).

pig = assay: Hemodynamic effect in the pig; assay type: in vivo, pig (German landrace); details: 10 mg/kg i.d., anesthetized pigs
Method: Three pigs (German landrace) were anesthetized (Ketamine 20 mg/kg i.m., Methomidate 8 mg/kg i.p., Xylazine 2.5 mg/kg i.m. and Pentobarbital 25 mg/kg i.v. as a bolus plus 0.16 mg/kg per minute). The trachea was intubated and the animals were given artificial respiration with air. Oxygen was added to keep the blood gas parameters in the normal range. To record the blood pressure (BP; BP(s)=systolic blood pressure, BP(d)=diastolic blood pressure) by means of a Statham 23 Db pressure transducer a catheter was inserted into the right A. Femoralis. The left ventricular pressure (LVP), the left ventricular end-diastolic pressure (LVEDP), the contractility (dP/dt) and the heart rate (HR) were determined with a Millar PC 350 catheter “tip manometer” which was inserted into the […] ventricle. After a stabilization period of the hemodynamic parameters of 30 minutes the test substance was administered in the indicated dose into the exposed duodenum by means of a catheter. The determined data were evaluated according to standard methods. Given are the means and the standard deviations (M±SEM) of the starting values and of the maximal changes of the individual parameters (=maximal effects).

Row | IC50 (rat aorta rings; ring with endothelium) | IC50 (rat aorta rings; ring without endothelium) | n-fold stimulation ([1]; concentration c 50 μM) | Compound | other results
1 | 520 nM | 270 nM | 34.8 | COc1cc(NS(=O)(=O)c2ccc(Cl)cc2)c(C(=O)Nc2ccc(S(=O)(=O)N3CCSCC3)cc2)cc1OC [Example 59, 2-(4-Chloro-phenylsulfonylamino)-4,5-dimethoxy-N-(4-(thiomorpholine-4-sulfonyl)-phenyl)-benzamide] | –
2 | 460 nM | 310 nM | 8.6 | O=C(Nc1ccc(S(=O)(=O)N2CCOCC2)cc1)c1cc(Cl)ccc1NS(=O)(=O)c1ccc(Cl)s1 [Example 129, 5-Chloro-2-(5-chloro-thiophene-2-sulfonylamino)-N-(4-(morpholine-4-sulfonyl)-phenyl)-benzamide] | –
3 | – | – | – | O=C(Nc1ccc(S(=O)(=O)c2ccccc2)cc1)c1cc(Cl)ccc1NS(=O)(=O)c1ccc(Cl)s1 [Example 225] | n-fold stimulation ([1]; concentration c 10 μM): 13.4
4 | 670 nM | 290 nM | 24.4 | COc1cc(NS(=O)(=O)c2ccc(Cl)cc2)c(C(=O)Nc2ccc(S(=O)(=O)N3C[C@@H](C)O[C@@H](C)C3)cc2)cc1OC [Example 88, 2-(4-Chloro-phenylsulfonylamino)-N-(4-(cis-2,6-dimethyl-morpholine-4-sulfonyl)-phenyl)-4,5-dimethoxy-benzamide] | BP(d) duration of action (pig): >0.125 days; BP(s) duration of action (pig): >10800 s; HR duration of action (pig): >180 min; LVEDP duration of action (pig): >180 min; dP/dtmax duration of action (pig): >180 min; dP/dtmax maximal alteration (pig; contractility, M±SEM): −633 ± 33 mm Hg/sec; BP(d) maximal alteration (pig; diastolic blood pressure, M±SEM): −20 ± 8 mm Hg; HR maximal alteration (pig; heart rate, M±SEM): −8 ± 2 beats/min; LVEDP maximal alteration (pig; left ventricular end-diastolic pressure, M±SEM): −1.3 ± 0.3 mm Hg; BP(s) maximal alteration (pig; systolic blood pressure, M±SEM): −23 ± 6 mm Hg
5 | – | – | 10.6 | O=C(Nc1ccc(S(=O)(=O)N2CCCCC2)cc1)c1cc(Cl)ccc1NS(=O)(=O)c1ccc(Cl)cc1 [Example 76, 5-Chloro-2-(4-chloro-phenylsulfonylamino)-N-(4-(piperidine-1-sulfonyl)-phenyl)-benzamide] | –
6 | – | – | – | Cc1cc(NC(=O)c2cc(Cl)ccc2NS(=O)(=O)c2ccc(Cl)cc2)ccc1S(=O)(=O)N1CC(C)CC(C)C1 (centres unmarked) [Example 194, 5-Chloro-2-(4-chloro-phenylsulfonylamino)-N-(4-(3,5-dimethyl-piperidine-1-sulfonyl)-3-methyl-phenyl)-benzamide] | n-fold stimulation ([1]; concentration c 5 μM): 20.0
7 | – | – | 12.1 | O=C(Nc1ccc(S(=O)(=O)N2CCC3(CC2)OCCO3)cc1)c1cc(Cl)ccc1NS(=O)(=O)c1ccc(Cl)cc1 [Example 68, 5-Chloro-2-(4-chloro-phenylsulfonylamino)-N-(4-(1,4-dioxa-8-aza-spiro[4.5]decane-8-sulfonyl)-phenyl)-benzamide] | –
8 | – | – | 29.6 | O=C(Nc1ccc(S(=O)(=O)N2CCC(O)CC2)cc1)c1cc(Cl)ccc1NS(=O)(=O)c1ccc(Cl)cc1 [Example 67, 5-Chloro-2-(4-chloro-phenylsulfonylamino)-N-(4-(4-hydroxy-piperidine-1-sulfonyl)-phenyl)-benzamide] | –
9 | – | – | – | Cc1noc(C)c1S(=O)(=O)Nc1ccc(Cl)cc1C(=O)Nc1ccc(S(=O)(=O)N2CC(C)CC(C)C2)cc1 (centres unmarked) [Example 223, 5-Chloro-2-(3,5-dimethyl-isoxazole-4-sulfonylamino)-N-(4-(3,5-dimethylpiperidine-1-sulfonyl)-phenyl)-benzamide] | n-fold stimulation ([1]; concentration c 10 μM): 27.1
10 | – | – | 5.1 | CCN(CC)S(=O)(=O)c1ccc(NC(=O)c2cc(Cl)ccc2NS(=O)(=O)c2ccc(Cl)cc2)cc1 [Example 75, 5-Chloro-2-(4-chloro-phenylsulfonylamino)-N-(4-diethylsulfamoyl-phenyl)-benzamide] | –
